15 compounds from PubChem BioAssay (NCI) can be followed below.

Some test systems named below: LOX IMVI melanoma; SK-OV-3 ovarian; 786-0 renal; OVCAR-3 ovarian; MOLT-4 leukemia; SF-295 CNS; IGROV1 ovarian; A549 NSCLC; UO-31 renal; SF-539 CNS.
Holding throughout (assay): NCI tumour cell line growth inhibition, 48 h

Where “and” joins values, the source holds several entries; their conditions need not be identical. Equal entries are not always repeated.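 These data come from cells grown in 96-well plates and exposed to compound for 48 hours at five concentrations. TGI is the concentration that stops growth completely.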 Bounds are passed on as bounds.

As for `CCCCCc1cc2cc3c(c(O)c2c(=O)[nH]1)C1(CCC3)C(O)=c2c(=O)c3c(=O)cc(OC)c(=O)c=3c(=O)c2=C1O` (stereo not given), the TGI with LOX IMVI melanoma was found to be 2.85 µM; in the assay on SK-OV-3 ovarian, 5.38 µM; with 786-0 renal, 2.69 µM; in the assay on OVCAR-3 ovarian, 2.21 µM; in the assay on MOLT-4 leukemia, 4.01 µM; in the assay on SF-295 CNS, 11 µM. In addition, the results for the TGI in the assay on IGROV1 ovarian, in the assay on A549 NSCLC and with UO-31 renal were 3.48 µM, 3.53 µM and 1.94 µM, respectively.

On to `O=c1cc(-c2c[nH]c3ccccc23)[nH]c2cc3c(cc12)OCO3`, for which the TGI in the assay on LOX IMVI melanoma, in the assay with SF-539 CNS, in the assay with 786-0 renal, with OVCAR-3 ovarian, with MOLT-4 leukemia and in the assay with SF-295 CNS was greater than 100 µM in each case. In addition, the TGI with IGROV1 ovarian, in the assay with A549 NSCLC and in the assay with UO-31 renal was greater than 100 µM in each case.

As to `CCOP(=O)(OCC)C(c1ccccc1)N(C(=O)NC(F)(F)F)c1cccc(F)c1` (stereo not given), the TGI with LOX IMVI melanoma, in the assay on SF-539 CNS, in the assay on 786-0 renal, with OVCAR-3 ovarian, in the assay with MOLT-4 leukemia and in the assay on SF-295 CNS was greater than 100 µM throughout. Further, the TGI in the assay on IGROV1 ovarian, with A549 NSCLC and with UO-31 renal was greater than 100 µM in each case.

As to `COc1cc(C2c3cc4c(cc3OC(Nc3ccccc3)C2C)OCO4)cc(OC)c1O` (stereo not given), the TGI in the assay on SF-539 CNS came to 8.9 µM; in the assay with 786-0 renal, 21.7 µM; in the assay with OVCAR-3 ovarian, 24.6 µM; with MOLT-4 leukemia, 11.2 µM; with SF-295 CNS, 15.6 µM; in the assay on IGROV1 ovarian it was 48 µM. Besides, the TGI was 19.2 µM in the assay on A549 NSCLC and 25.8 µM in the assay with UO-31 renal.

For the compound `Cc1c(CCO)c(=O)n2c([nH]c3ccccc32)c1C#N`, the TGI in the assay with LOX IMVI melanoma, in the assay with SF-539 CNS, in the assay on SK-OV-3 ovarian, in the assay with 786-0 renal, in the assay with OVCAR-3 ovarian and with SF-295 CNS was greater than 100 µM in each case. Also, the TGI with IGROV1 ovarian, with A549 NSCLC and with UO-31 renal was greater than 100 µM throughout.

Consider `O=C1c2ccccc2C(=O)c2c(O)c(NCCCNCCO)cc(O)c21`, for which the TGI in the assay on SF-539 CNS is 22.2 µM; with SK-OV-3 ovarian it was 26.1 µM; in the assay with 786-0 renal, 23 µM; in the assay on OVCAR-3 ovarian, 26.6 µM; with MOLT-4 leukemia it was 14 µM; in the assay with SF-295 CNS, 23.1 µM. Besides, the TGI in the assay on IGROV1 ovarian turned out to be 28.8 µM; in the assay with A549 NSCLC, 23.7 µM; in the assay on UO-31 renal, 19.5 µM.

As for `O=C(CCCCCC(=O)N1CC(CCl)c2ccc([N+](=O)[O-])cc21)N1CC(CCl)c2ccc([N+](=O)[O-])cc21` (stereo not given), the TGI in the assay with LOX IMVI melanoma, in the assay with SF-539 CNS, with SK-OV-3 ovarian, in the assay on 786-0 renal, with OVCAR-3 ovarian and in the assay on MOLT-4 leukemia was greater than 100 µM throughout. The TGI with SF-295 CNS, with IGROV1 ovarian and with UO-31 renal was greater than 100 µM throughout.

Regarding `COc1cc(C2=NNC(=O)c3ccccc3N2c2nc(-c3cccs3)nc3ccc(Br)cc23)cc(OC)c1OC`, the TGI in the assay with SF-539 CNS was 24.2 µM; in the assay on SK-OV-3 ovarian, greater than 100 µM; with 786-0 renal, greater than 100 µM; in the assay on OVCAR-3 ovarian, 27.8 µM; with SF-295 CNS, 31.7 µM; in the assay with IGROV1 ovarian it was greater than 100 µM. For the same compound, the TGI in the assay on A549 NSCLC and with UO-31 renal was greater than 100 µM in each case.

For `O=C(/C=C/c1ccco1)c1ccc(NCc2nc3ccccc3[nH]2)cc1`, the TGI turned out to be 29.8 µM in the assay on LOX IMVI melanoma; 33.2 µM in the assay with SF-539 CNS; 43.3 µM in the assay on SK-OV-3 ovarian; 32.5 µM with 786-0 renal; 31.1 µM in the assay on OVCAR-3 ovarian; 31.9 µM with MOLT-4 leukemia. Further, the TGI in the assay with SF-295 CNS amounted to 31.1 µM; in the assay on IGROV1 ovarian, 34.1 µM; in the assay on UO-31 renal it was 27.3 µM.

`CC(=O)NC1C(OCc2ccccc2)OC(CO)C(O)C1OC(C)C(=O)N[C@@H](C)C(=O)N[C@H](CCC(=O)OCCNc1c2ccccc2nc2cccc([N+](=O)[O-])c12)C(N)=O` (stereo not given in full): the TGI in the assay on SF-539 CNS was 0.0161 µM; in the assay on SK-OV-3 ovarian it was 0.0288 µM; with 786-0 renal it was 0.00335 µM and 0.00671 µM; in the assay with OVCAR-3 ovarian it was 0.00427 µM; in the assay on MOLT-4 leukemia it was greater than 0.1 µM; with SF-295 CNS, 0.0339 µM. Besides, the TGI in the assay with IGROV1 ovarian was 0.0679 µM and 0.022 µM; with A549 NSCLC, 0.0173 µM; in the assay with UO-31 renal, 0.0107 µM.

`CN(C)c1ccc(C=C2C(=O)N(c3ccccc3)N(c3ccccc3)C2=O)cc1`: the TGI in the assay on LOX IMVI melanoma, in the assay with SK-OV-3 ovarian, in the assay with 786-0 renal, in the assay with OVCAR-3 ovarian, with MOLT-4 leukemia and in the assay on SF-295 CNS was greater than 100 µM in each case. Further, the TGI in the assay with IGROV1 ovarian, in the assay with A549 NSCLC and in the assay with UO-31 renal was greater than 100 µM each time.

As to `C=C1C(=O)O[C@H]2[C@H]3O[C@@H](C[C@@H]12)[C@@]1(C)CC[C@H](O1)[C@H](C)CCC[C@H]3C`, the TGI is 2.94 µM in the assay with LOX IMVI melanoma; 19.5 µM with SK-OV-3 ovarian; 2.63 µM in the assay with 786-0 renal; 2.37 µM in the assay with OVCAR-3 ovarian; 17.4 µM with SF-295 CNS; 2.74 µM in the assay with IGROV1 ovarian. Further, the results for the TGI in the assay on A549 NSCLC and in the assay with UO-31 renal were 5.09 µM and 2.9 µM, respectively.

In the case of `O=C(CCCCCCCCC(=O)N1C(=O)CC(=O)N(c2ccccc2)C1=S)N1C(=O)CC(=O)N(c2ccccc2)C1=S`, the TGI with LOX IMVI melanoma, in the assay on SK-OV-3 ovarian, in the assay on 786-0 renal, in the assay on OVCAR-3 ovarian, with MOLT-4 leukemia and in the assay on SF-295 CNS was greater than 100 µM in each case. Besides, the TGI in the assay with A549 NSCLC and with UO-31 renal was greater than 100 µM each time.

Take `COC(=O)/C(=N/Nc1cccc(Cl)c1)C(C(=O)C(=O)Nc1cccc(Cl)c1C)c1nc2ccccc2nc1C` (stereo not given): the TGI with SF-539 CNS, in the assay with SK-OV-3 ovarian, in the assay with 786-0 renal, with OVCAR-3 ovarian, in the assay with MOLT-4 leukemia and in the assay on SF-295 CNS was greater than 100 µM in each case. Moreover, the TGI in the assay with IGROV1 ovarian is greater than 100 µM; in the assay with A549 NSCLC, greater than 100 µM; in the assay on UO-31 renal, 75.1 µM.

On to `C(=Nc1ccc(-c2nc3ccccc3[nH]2)cc1)c1ccc[nH]1`, for which the TGI with LOX IMVI melanoma, in the assay with SF-539 CNS, in the assay on 786-0 renal, in the assay on OVCAR-3 ovarian, in the assay on MOLT-4 leukemia and in the assay with IGROV1 ovarian was greater than 100 µM in each case. Further, the TGI with A549 NSCLC and in the assay with UO-31 renal was greater than 100 µM throughout.
